Results on nine cell lines are retold here after the supplement of paper PMC10307832.

What all share (experiment): relative viability (nuclei count vs DMSO), 5 days (fraction); higher = more cells survive
Compound in assay [1]: CC1=C(C(=NN1)C)CC2=C(C3=C(S2)N(C(=O)N(C3=O)C)CC(C)C)C(=O)N4C[C@@H](CO4)O + CC(C)C[C@H](NC(=O)[C@H](Cc1ccccc1)NC(=O)c1cnccn1)B(O)O [Bortezomib] (partner 0.002 µM)
The method in brief: (§1)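 Lung cancer cell lines in 1536-well plates were dosed by pin tool the day after seeding, either with one drug alone or with a fixed anchor-drug dose plus five library-drug doses (not always all listed) in √10 steps. After 5 days, cells were fixed and their nuclei stained in one step (final 0.05% Triton X-100, 1% formaldehyde, 1 ug/ml Hoechst), then counted on 4× images. Relative viability is the nuclei count in treated wells divided by that in vehicle wells. Values are medians of duplicate plates.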

Compound in assay [2]: CC1=C(C(=NN1)C)CC2=C(C3=C(S2)N(C(=O)N(C3=O)C)CC(C)C)C(=O)N4C[C@@H](CO4)O + CC1(C)CCC(c2ccc(Cl)cc2)=C(CN2CCN(c3ccc(C(=O)NS(=O)(=O)c4ccc(N[C@H](CCN5CCOCC5)CSc5ccccc5)c(S(=O)(=O)C(F)(F)F)c4)cc3)CC2)C1 [Navitoclax] (partner 0.5 µM)
The method in brief:
as §1

Compound in assay [3]: CC1=C(C(=NN1)C)CC2=C(C3=C(S2)N(C(=O)N(C3=O)C)CC(C)C)C(=O)N4C[C@@H](CO4)O + Nc1nc2[nH]cc(CCc3ccc(C(=O)N[C@@H](CCC(=O)O)C(=O)O)cc3)c2c(=O)[nH]1 [Pemetrexed] (partner 0.2 µM)
In short, it runs like this:
as §1

Compound in the assay “IDH-C35 + Phenformin”: Cc1ccccc1C(C(=O)NC1CCCCC1)N(C(=O)Cn1ccnc1C)c1cccc(F)c1 [IDH-C35] + N=C(N)NC(=N)NCCc1ccccc1 [Phenformin] (partner 250 µM)
The method in brief:
as §1

Turning to 201T, the relative viability in assay [1] (first compound 0.0025 µM) is 1.15; in assay [1] (first compound 0.007906 µM), 1.07; in assay [1] (first compound 0.025 µM) it was 1.03; in assay [1] (first compound 0.07906 µM), 1.06; in assay [1] (first compound 0.25 µM), 1.12; in assay [2] (first compound 0.0025 µM), 1.22. Further, the relative viability worked out at 1.22 in assay [2] (first compound 0.007906 µM); 1.17 in assay [2] (first compound 0.025 µM); 1.14 in assay [2] (first compound 0.07906 µM); 1.21 in assay [2] (first compound 0.25 µM); 0.311 in assay [3] (first compound 0.0025 µM); 0.342 in assay [3] (first compound 0.007906 µM). Also, the relative viability in assay [3] (first compound 0.025 µM) came out at 0.322; in assay [3] (first compound 0.07906 µM), 0.309; in assay [3] (first compound 0.25 µM) it was 0.32; with IDH-C35 + Phenformin (first compound 0.08 µM), 0.469; with IDH-C35 + Phenformin (first compound 0.253 µM), 0.431; with IDH-C35 + Phenformin (first compound 0.8 µM) it was 0.436. Moreover, the relative viability was 0.466 with IDH-C35 + Phenformin (first compound 2.53 µM) and 0.438 with IDH-C35 + Phenformin (first compound 8 µM).

Take A549: the relative viability in assay [2] (first compound 0.0025 µM) is 1.32; in assay [2] (first compound 0.007906 µM), 1.27; in assay [2] (first compound 0.025 µM), 1.14; in assay [2] (first compound 0.07906 µM) it was 1.32; in assay [2] (first compound 0.25 µM), 1.24; with IDH-C35 + Phenformin (first compound 0.08 µM), 0.188. The relative viability in the assay with IDH-C35 + Phenformin (first compound 0.253 µM) came to 0.189; in the assay with IDH-C35 + Phenformin (first compound 0.8 µM), 0.151; with IDH-C35 + Phenformin (first compound 8 µM), 0.19.

Take A-427: the relative viability in assay [1] (first compound 0.0025 µM) came to 0.945; in assay [1] (first compound 0.007906 µM), 1; in assay [1] (first compound 0.025 µM) it was 1.03; in assay [1] (first compound 0.07906 µM) it was 0.975; in assay [1] (first compound 0.25 µM), 0.944; in assay [2] (first compound 0.0025 µM), 1.01. The relative viability in assay [2] (first compound 0.007906 µM) was 0.948; in assay [2] (first compound 0.025 µM) it was 0.889; in assay [2] (first compound 0.07906 µM), 0.886; in assay [2] (first compound 0.25 µM), 1.16; in assay [3] (first compound 0.0025 µM), 1; in assay [3] (first compound 0.007906 µM), 1.07. Moreover, the relative viability in assay [3] (first compound 0.025 µM) is 0.935; in assay [3] (first compound 0.07906 µM), 0.906; in assay [3] (first compound 0.25 µM), 0.983; with IDH-C35 + Phenformin (first compound 0.08 µM) it was 0.359; with IDH-C35 + Phenformin (first compound 0.253 µM) it was 0.3; in the assay with IDH-C35 + Phenformin (first compound 0.8 µM), 0.338. The results for the relative viability with IDH-C35 + Phenformin (first compound 2.53 µM) and with IDH-C35 + Phenformin (first compound 8 µM) were 0.314 and 0.312, respectively.

Turning to ABC-1, the relative viability amounted to 0.342 in assay [1] (first compound 0.0025 µM); 0.304 in assay [1] (first compound 0.007906 µM); 0.304 in assay [1] (first compound 0.025 µM); 0.394 in assay [1] (first compound 0.07906 µM); 0.335 in assay [1] (first compound 0.25 µM); 0.261 with IDH-C35 + Phenformin (first compound 0.08 µM). Further, the relative viability with IDH-C35 + Phenformin (first compound 0.253 µM) was determined as 0.218; with IDH-C35 + Phenformin (first compound 0.8 µM) it was 0.247; with IDH-C35 + Phenformin (first compound 2.53 µM), 0.235; in the assay with IDH-C35 + Phenformin (first compound 8 µM) it was 0.23.

Turning to BEN, the relative viability in assay [1] (first compound 0.0025 µM) is 0.772; in assay [1] (first compound 0.007906 µM), 0.74; in assay [1] (first compound 0.025 µM) it was 0.532; in assay [1] (first compound 0.07906 µM), 0.675; in assay [1] (first compound 0.25 µM), 0.665; in assay [2] (first compound 0.0025 µM) it was 0.0618. In addition, the relative viability in assay [2] (first compound 0.007906 µM) stood at 0.0913; in assay [2] (first compound 0.025 µM), 0.0867; in assay [2] (first compound 0.07906 µM), 0.0968; in assay [2] (first compound 0.25 µM) it was 0.0771; in assay [3] (first compound 0.0025 µM), 0.697; in assay [3] (first compound 0.007906 µM), 0.836. For the same cell line, the relative viability in assay [3] (first compound 0.025 µM) is 0.558; in assay [3] (first compound 0.07906 µM) it was 0.665; in assay [3] (first compound 0.25 µM), 0.687; with IDH-C35 + Phenformin (first compound 0.08 µM) it was 0.292; in the assay with IDH-C35 + Phenformin (first compound 0.253 µM), 0.246; with IDH-C35 + Phenformin (first compound 0.8 µM), 0.257. The values for the relative viability with IDH-C35 + Phenformin (first compound 2.53 µM) and with IDH-C35 + Phenformin (first compound 8 µM) were 0.279 and 0.282, respectively.

In the case of CAL-12T, the relative viability in assay [1] (first compound 0.0025 µM) worked out at 1.07; in assay [1] (first compound 0.007906 µM) it was 0.978; in assay [1] (first compound 0.07906 µM), 0.891; in assay [1] (first compound 0.25 µM), 0.926; in assay [2] (first compound 0.0025 µM), 1.27; in assay [2] (first compound 0.007906 µM), 1.39. The relative viability was determined as 1.03 in assay [2] (first compound 0.025 µM); 1.37 in assay [2] (first compound 0.07906 µM); 1.33 in assay [2] (first compound 0.25 µM); 1.28 in assay [3] (first compound 0.0025 µM); 1.36 in assay [3] (first compound 0.007906 µM); 0.956 in assay [3] (first compound 0.025 µM). In addition, the relative viability in assay [3] (first compound 0.07906 µM) worked out at 1.08; in assay [3] (first compound 0.25 µM) it was 1.38; in the assay with IDH-C35 + Phenformin (first compound 0.08 µM), 0.546; with IDH-C35 + Phenformin (first compound 0.253 µM), 0.618; in the assay with IDH-C35 + Phenformin (first compound 0.8 µM) it was 0.556; with IDH-C35 + Phenformin (first compound 2.53 µM), 0.589. The relative viability in the assay with IDH-C35 + Phenformin (first compound 8 µM) stood at 0.498.

Take COR-L23: the relative viability was 1.07 in assay [1] (first compound 0.0025 µM); 0.895 in assay [1] (first compound 0.007906 µM); 0.888 in assay [1] (first compound 0.025 µM); 0.754 in assay [1] (first compound 0.07906 µM); 0.865 in assay [1] (first compound 0.25 µM); 0.783 in assay [2] (first compound 0.0025 µM). The relative viability in assay [2] (first compound 0.007906 µM) came to 0.984; in assay [2] (first compound 0.025 µM), 0.777; in assay [2] (first compound 0.07906 µM), 0.781; in assay [2] (first compound 0.25 µM), 0.845; in assay [3] (first compound 0.0025 µM), 0.22; in assay [3] (first compound 0.007906 µM) it was 0.214. Further, the relative viability in assay [3] (first compound 0.025 µM) was 0.195; in assay [3] (first compound 0.07906 µM), 0.223; in assay [3] (first compound 0.25 µM), 0.204; with IDH-C35 + Phenformin (first compound 0.08 µM), 0.478; with IDH-C35 + Phenformin (first compound 0.253 µM) it was 0.42; with IDH-C35 + Phenformin (first compound 0.8 µM) it was 0.423. Further, the results for the relative viability with IDH-C35 + Phenformin (first compound 2.53 µM) and with IDH-C35 + Phenformin (first compound 8 µM) were 0.421 and 0.382, respectively.

For the cell line COR-L 105, the relative viability was determined as 0.841 in assay [1] (first compound 0.0025 µM); 0.763 in assay [1] (first compound 0.007906 µM); 0.882 in assay [1] (first compound 0.025 µM); 0.73 in assay [1] (first compound 0.07906 µM); 0.802 in assay [1] (first compound 0.25 µM); 0.969 in assay [2] (first compound 0.0025 µM). Further, the relative viability in assay [2] (first compound 0.007906 µM) was found to be 0.768; in assay [2] (first compound 0.025 µM), 0.682; in assay [2] (first compound 0.07906 µM), 0.561; in assay [2] (first compound 0.25 µM), 0.657; in assay [3] (first compound 0.0025 µM), 1.27; in assay [3] (first compound 0.007906 µM), 1.15. Further, the relative viability amounted to 1.06 in assay [3] (first compound 0.025 µM); 1.24 in assay [3] (first compound 0.07906 µM); 1.35 in assay [3] (first compound 0.25 µM); 0.479 with IDH-C35 + Phenformin (first compound 0.08 µM); 0.479 with IDH-C35 + Phenformin (first compound 0.253 µM); 0.555 in the assay with IDH-C35 + Phenformin (first compound 0.8 µM). Further, the relative viability with IDH-C35 + Phenformin (first compound 2.53 µM) turned out to be 0.484; with IDH-C35 + Phenformin (first compound 8 µM), 0.457.

Consider Calu-6, for which the relative viability in assay [1] (first compound 0.0025 µM) came out at 1.05; in assay [1] (first compound 0.007906 µM), 1.05; in assay [1] (first compound 0.025 µM), 0.904; in assay [1] (first compound 0.07906 µM) it was 1.12; in assay [1] (first compound 0.25 µM) it was 1.09; in assay [2] (first compound 0.0025 µM), 0.925. For the same cell line, the relative viability in assay [2] (first compound 0.007906 µM) is 0.827; in assay [2] (first compound 0.025 µM), 0.805; in assay [2] (first compound 0.07906 µM), 0.906; in assay [2] (first compound 0.25 µM), 0.892.
